pIC50, pKi: −log10 of the molar value. Where a name gives a salt, the structure may show the parent alone. Read-outs that look alike come from different tables or passages of the source.
Experiments:
[1] = target: T1, fibrinogen receptor (glycoprotein IIb/IIIa) on intact, gel-filtered human thrombocytes (Homo sapiens, UniProt P05106+P08514); assay: Inhibition of 125I-fibrinogen binding to its receptor (glycoprotein IIb/IIIa) on intact, gel-filtered human thrombocytes (Test method 2); conditions: intact GFP, 10 μM ADP, 40 nmol/l 125I-fibrinogen, room temperature, 30 min; read-out: Ki, inhibition of the binding of 125I-fibrinogen, ADP-stimulated
T1 construct: endogenous in cells; host or cells: human thrombocytes isolated from platelet-rich plasma by gel filtration on Sepharose 2 B
T1 sequence (P08514 32-887 limits assumed): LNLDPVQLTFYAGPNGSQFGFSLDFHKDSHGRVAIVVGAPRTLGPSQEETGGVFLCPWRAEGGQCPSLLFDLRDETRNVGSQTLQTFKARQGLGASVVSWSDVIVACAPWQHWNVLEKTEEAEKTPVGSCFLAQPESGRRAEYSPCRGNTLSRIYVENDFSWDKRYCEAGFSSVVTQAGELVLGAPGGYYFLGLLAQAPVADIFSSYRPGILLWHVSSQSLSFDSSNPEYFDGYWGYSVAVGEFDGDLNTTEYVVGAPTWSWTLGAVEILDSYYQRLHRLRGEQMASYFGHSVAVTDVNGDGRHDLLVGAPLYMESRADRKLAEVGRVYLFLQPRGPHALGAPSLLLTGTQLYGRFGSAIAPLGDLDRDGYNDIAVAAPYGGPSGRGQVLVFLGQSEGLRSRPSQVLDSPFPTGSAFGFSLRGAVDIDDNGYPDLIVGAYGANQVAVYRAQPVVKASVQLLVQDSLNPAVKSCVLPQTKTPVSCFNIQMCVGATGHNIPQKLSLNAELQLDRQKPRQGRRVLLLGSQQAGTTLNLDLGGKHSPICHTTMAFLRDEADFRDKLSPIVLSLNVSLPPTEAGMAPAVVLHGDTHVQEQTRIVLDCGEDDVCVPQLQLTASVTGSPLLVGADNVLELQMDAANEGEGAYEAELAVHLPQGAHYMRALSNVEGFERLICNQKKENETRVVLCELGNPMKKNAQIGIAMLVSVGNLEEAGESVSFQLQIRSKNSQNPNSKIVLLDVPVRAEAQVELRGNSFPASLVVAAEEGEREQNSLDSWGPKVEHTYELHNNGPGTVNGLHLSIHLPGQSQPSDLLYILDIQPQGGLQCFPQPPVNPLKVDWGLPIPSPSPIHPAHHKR
T1 sequence (P08514 891-1039 partner limits assumed): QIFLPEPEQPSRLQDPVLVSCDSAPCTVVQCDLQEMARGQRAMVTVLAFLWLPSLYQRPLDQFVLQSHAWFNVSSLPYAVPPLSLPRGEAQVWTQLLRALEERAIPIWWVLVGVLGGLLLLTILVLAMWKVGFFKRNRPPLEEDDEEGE
T1 sequence (P05106 27-788): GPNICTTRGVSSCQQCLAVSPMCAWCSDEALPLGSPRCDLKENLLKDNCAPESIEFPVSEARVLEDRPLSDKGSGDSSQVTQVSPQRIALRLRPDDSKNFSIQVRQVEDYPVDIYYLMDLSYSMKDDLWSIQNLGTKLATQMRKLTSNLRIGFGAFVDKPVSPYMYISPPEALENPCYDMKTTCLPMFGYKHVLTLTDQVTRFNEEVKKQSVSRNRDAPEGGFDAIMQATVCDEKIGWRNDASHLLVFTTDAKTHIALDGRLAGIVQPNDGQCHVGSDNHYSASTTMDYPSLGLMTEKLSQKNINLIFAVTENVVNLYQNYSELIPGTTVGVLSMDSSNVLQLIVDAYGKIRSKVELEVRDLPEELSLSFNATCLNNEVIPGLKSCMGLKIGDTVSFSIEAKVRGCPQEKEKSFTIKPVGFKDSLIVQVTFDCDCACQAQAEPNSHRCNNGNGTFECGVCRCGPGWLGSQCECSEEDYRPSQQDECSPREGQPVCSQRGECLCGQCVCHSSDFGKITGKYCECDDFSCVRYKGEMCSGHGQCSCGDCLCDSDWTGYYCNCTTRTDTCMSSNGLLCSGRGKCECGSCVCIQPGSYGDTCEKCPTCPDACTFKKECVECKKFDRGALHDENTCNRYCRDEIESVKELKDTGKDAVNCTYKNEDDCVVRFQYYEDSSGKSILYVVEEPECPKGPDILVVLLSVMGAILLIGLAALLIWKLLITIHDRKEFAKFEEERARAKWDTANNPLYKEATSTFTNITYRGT
Method: The inhibition of the binding of fibrinogen to its receptor (glycoprotein IIb/IIIa) by the compounds according to the invention is tested on intact, gel-filtered human thrombocytes.
For this purpose, human thrombocytes were isolated from platelet-rich plasma (PRP) by gel filtration on Sepharose 2 B. A suspension of gel-filtered platelets (GFP) was obtained which contained 4×10^8platelets/ml. […] Aliquots of 100 μl were then added onto 20% sucrose, and the platelets were sedimented by being centrifuged for 2 minutes at 12,000 revolutions per minute. The supernatant was decanted carefully and completely and the remaining sediment was measured in a gamma counter. The specific binding was ascertained by subtracting the binding in the presence of an excess (10 μM) of unlabelled fibrinogen from the total bound radioactivity.

[2] = system: gel-filtered human thrombocytes; assay: Inhibition of the aggregation of gel-filtered human thrombocytes following stimulation with ADP or thrombin (Test method 1); assay type: cell-based; conditions: 1 mg/ml fibrinogen, 37° C., GFP from 2-4 donors
[3] = target: T2, isolated fibrinogen receptor (glycoprotein IIb/IIIa) (Homo sapiens, UniProt P05106+P08514); assay: Inhibition of 125I-fibrinogen binding to the isolated, immobilized receptor (glycoprotein IIb/IIIa) (Test method 3); conditions: isolated receptor immobilized in microtitre plates; read-out: Ki, inhibition of the binding of 125I-fibrinogen, ADP-stimulated
T2 construct: isolated from human thrombocytes and immobilized in microtitre plates; from tissue; host or cells: human thrombocytes (platelets), receptor isolated
T2 sequence (P08514 32-887 limits assumed): as the sequence (P08514 32-887 limits assumed) above
T2 sequence (P08514 891-1039 partner limits assumed): as the sequence (P08514 891-1039 partner limits assumed) above
T2 sequence (P05106 27-788): as the sequence (P05106 27-788) above
Method: The inhibition of the binding of fibrinogen to its receptor (glycoprotein IIb/IIIa) which is brought about by the compounds according to the invention is tested on the isolated receptor, which was isolated from human thrombocytes and immobilized in microtitre plates.

[4] = Homo sapiens, ADP-stimulated (10 μM ADP), read-out: IC50, inhibition of thrombocyte aggregation, ADP-stimulated
[5] = Homo sapiens, Thrombin-stimulated (0.1 U/ml thrombin), read-out: IC50, inhibition of thrombocyte aggregation, Thrombin-stimulated
[6] = ADP-stimulated (10 μM ADP), read-out: IC50, inhibition of thrombocyte aggregation, ADP-stimulated
[7] = Thrombin-stimulated (0.1 U/ml thrombin), read-out: IC50, inhibition of thrombocyte aggregation, Thrombin-stimulated

Row | pKi [1] | pKi [3] | pIC50 [2, 6] | pIC50 [2, 7] | SMILES | pIC50 [2, 4] | pIC50 [2, 5]
1 | 7.66 | 9.31 | – | – | CC1(c2ccc(C(=N)N)cc2)NC(=O)N(CC(=O)N[C@@H](CC(=O)O)c2ccccc2)C1=O (stereo partly drawn) [Example 56, (S)-3-(((R,S)-4-(4-(aminoiminomethyl)phenyl)-4-methyl-2,5-dioxoimidazolidin-1-yl)acetylamino)-3-phenylpropionic acid hydrochloride] | 7.00 | 7.22
2 | 5.71 | 7.43 | 5.22 | 5.30 | CC1(c2ccc(C(=N)N)cc2)NC(=O)N(CC(=O)N[C@@H](CC(=O)O)c2ccccc2)C1=O (single isomer, unassigned) [Example 57, (S)-3-(((S or R)-4-(4-Aminoiminomethyl)phenyl)-4-methyl-2,5-dioxoimidazolidin-1-yl)acetylamino)-3-phenylpropionic acid] | – | –
3 | 8.04 | 9.76 | 7.70 | 7.60 | CC1(c2ccc(C(=N)N)cc2)NC(=O)N(CC(=O)N[C@@H](CC(=O)O)c2ccccc2)C1=O (single isomer, unassigned) [Example 58, (S)-3-(((R or S)-4-(4-Aminoiminomethyl)phenyl)-4-methyl-2,5-dioxoimidazolidin-1-yl)acetylamino)-3-phenylpropionic acid] | – | –

Row | SMILES | pKi [1] | pKi [3] | pIC50 [2, 6] | pIC50 [2, 7] | pIC50 [2, 4] | pIC50 [2, 5]
4 | CC1(c2ccc(C(=N)N)cc2)NC(=O)N(CC(=O)N[C@@H](CC(=O)O)C(=O)N[C@H](C(=O)O)c2ccccc2)C1=O (stereo partly drawn) [Example 1, ((R,S)-4-(4-(Aminoiminomethyl)phenyl)-4-methyl-2,5-dioxoimidazolidin-1-yl)-acetyl-L-aspartyl-L-phenylglycine] | 7.88 | 9.76 | – | – | 7.40 | 7.30

— patent US6191282A, “Substituted 5-membered ring heterocycles comprising a bicyclic or tricyclic group their preparation and their use” (Hoechst Marion Roussel, priority 1993, dated 2001)
